Test results taken from patent US20030185792A1, “Morphogen analogs of bone morphogenic proteins” (Curis, Inc., priority 1996, published 2003).
Entries after “also recorded” stand apart in the source; their conditions may differ.

T1: DAF-4 ECD (Caenorhabditis elegans, UniProt P50488)
T1 construct: highly purified ECD of DAF-4 as type II receptor
T1 sequence (P50488 48-253 limits assumed): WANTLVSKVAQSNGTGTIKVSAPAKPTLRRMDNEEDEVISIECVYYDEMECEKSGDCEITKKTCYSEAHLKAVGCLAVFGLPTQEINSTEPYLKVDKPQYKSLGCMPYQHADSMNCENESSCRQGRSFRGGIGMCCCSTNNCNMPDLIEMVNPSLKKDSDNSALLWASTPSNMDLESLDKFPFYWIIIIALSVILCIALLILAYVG

B1: OP-1: osteogenic protein-1, a tissue morphogenic protein of the TGF-β superfamily; mature human OP-1 is SEQ ID No. 4 (protein, listed as Homo sapiens)
chain: CKKHELYVSFRDLGWQDWIIAPEGYAAYYCEGECAFPLNSYMNATNHAIVQTLVHFINPETVPKPCCAPTQLNAISVLYFDDSSNVILKKYRNMVVRACGCH

Columns and labels:
ROS cells = experiment: ROS cell based alkaline phosphatase bioassay; set-up: species or system rat; settings: for % increase in OP-1 response relative to the absence of peptide: OP-1 1.33 nM
Protocol: In a first series of experiments, increasing concentrations of peptides F2-2 (FIG. 9A), F2-3 (FIG. 9B), Hn-2 (FIG. 9C) and Hc-2 (FIG. 9D) were added to ROS cells either alone (open bars) or in combination with 40 ng/ml soluble OP-1 (filled bars) and their effect on alkaline phosphatase activity measured. Soluble OP-1 is the form of OP-1 in which the pro-domain is still attached to the mature portion of OP-1 (see WO 94/03600). A basal alkaline phosphatase activity is shown by the line and represents the alkaline phosphatase activity of cells incubated in the absence of both soluble OP-1 and peptide.
Assay of peptides: The receptor-binding activities of OP-1 synthetic peptides were determined by a radio-ligand receptor assay using ^125I-labeled OP-1 as ligand, and an OP-1 receptor-enriched plasma membrane fraction of ROS cells. The assay is based on competition between radiolabeled OP-1 and unlabeled OP-1 or peptide for binding to membrane-bound receptor. A well characterized ROS cell based in vitro bio-assay was used to examine the effects of OP-1 peptides on basal as well as OP-1 induced cellular alkaline phosphatase activity.
i. ROS Cell Based Alkaline Phosphatase Assay: OP-1 synthetic peptides that bind OP-1 receptors are further analyzed by in vitro bioassay. This allows defining the role of OP-1 peptides at the receptor-binding site. Some of the OP-1 peptides that effectively interact with receptors could inhibit OP-1 induced target cell responsiveness, thereby acting as functional antagonists. Alternatively, they may mimic OP-1 functions inducing alkaline phosphatase activity in ROS cells. Creative BioMolecules has developed and fully validated ROS cell in vitro assay for OP-1. An assay procedure as described earlier is essentially followed to determine the biological activities of OP-1 peptides. In a typical experiment, rat Osteosarcoma (17/2.8) cells are plated in 96 well plates (3.0×10^4 cells/well) and incubated overnight at 37° C. in 5-6% CO2 incubator. Next day, the plates are examined to make sure that cells are healthy & confluent. Cells are treated with increasing concentrations of OP-1 standard (1-10,000 ng/ml) or OP-1 synthetic peptides (0.02-200 μM) alone or with OP-1 standard prepared in medium containing 1% FBS and incubated for 2 days at 37° C. in 5-6% CO2 incubator. The cellular content of alkaline phosphatase activity is determined by the method of Reddi and Huggins. Enzyme estimations are routinely carried out in 96 well plates. Following removal of culture medium, cells are washed with pre-warmed PBS (150 μl) and further incubated in 100 ul of pre-warmed 1% Triton X-100 for 30 minutes at 37 C. Plates are centrifuged for 10 minutes at full speed, and recovered samples (each 15 μl) are assayed for enzyme activity by adding 90 ul p-nitrophenyl phosphate (Sigma) as a substrate in 0.05 M glycine-NaOH buffer, pH 9.3 and incubating for 20 minutes at 37° C. The reaction is stopped by adding 75 μl of 0.2 N NaOH/well and absorbance at 405/490 nm is measured on a Dynatech MR 700 plate reader. Results are expressed as concentration of peptide inhibitor (with antagonist activity) required to give 50% inhibition of maximum response to OP-1 standard. On the other hand, the activities of peptides that stimulate cell responsiveness (with agonist activity) are expressed relative to OP-1 standard. FIG. 23 illustrates the dose-related effects of OP-1 preparations on stimulation of alkaline phosphatase activity as determined in ROS cell based in vitro assay.

ROS cell receptor = experiment: Type II receptor-based ligand blot, ROS cell receptor; format: binding, rat; settings: FIG. 21
Protocol: (§1) iv. Type II receptor-based ligand-blot technique: A ligand blot method can be used to characterize OP-1 binding properties of highly purified DAF4 ECD and ROS cell receptor. Peptides are analyzed by this method to determine their ability to interact with type II receptor, based on their ability to inhibit ^125I-labeled OP-1 binding to the receptor. In a typical experiment, receptor-enriched ROS cell plasma membrane fraction or purified DAF-4 ECD is treated with SDS (final concentration 1.6%, w/v) in the presence of 17% glycerol on ice, as is known in the art, and subjected to SDS-PAGE under non-reducing conditions and without prior heating of the samples, according to the procedure of Laemmli. Receptor samples are electrophoressed at 35 mA and 4° C., in gradient (5-8% or 5-10%, w/v) acrylamide separating gels. Pre-stained markers of known MW, are used as standards. After SDS-PAGE, the resolved proteins from acrylamide gels are transblotted onto PVDF membranes (Immobilon-P transfer membranes) using an Pharmacia-LKB 2005 Transphor Unit, at constant current (0.2 A) and 4° C., for 16 h. Ligand blotting is carried out as follows. […]

DAF-4 ECD = target: T1, DAF-4 ECD; experiment: Type II receptor-based ligand blot, DAF-4 ECD; format: binding; settings: FIG. 22
Protocol: as §1

Molecule	behaviour in the alkaline phosphatase assay (agonist/antagonist) (ROS cells; Example 2, alone or with 40 ng/ml soluble OP-1)	effect on basal cell responsiveness (alkaline phosphatase activity) (ROS cells; Example 3, peptide alone, no OP-1)	effect on OP-1 induced cell responsiveness (agonist/antagonist behaviour) (ROS cells; Example 3, peptide together with OP-1)	peptide concentrations at which OP-1 induced responsiveness is potentiated (ROS cells; Example 3, with OP-1) [µM]	overall judgement of activity (lead peptides) (ROS cells; Example 3 summary, antagonistic (H-C2) and modulating (F2-3) activity)	% increase in OP-1 response relative to the absence of peptide (ROS cells; peptide 0.01 (unit printed ELM), FIG. 19) [%]	% increase in OP-1 response relative to the absence of peptide (ROS cells; peptide 0.1 (unit printed ELM), FIG. 19) [%]	% increase in OP-1 response relative to the absence of peptide (ROS cells; peptide 1 ELM (so in the source), FIG. 19) [%]	increase of alkaline phosphatase activity relative to soluble OP-1 alone (ROS cells; peptide about 0.01 μM with 40 ng/ml soluble OP-1, FIG. 9B)	effect on basal alkaline phosphatase level (ROS cells; peptide alone, about 0.01 μM, Example 2, FIG. 9B)	level of OP-1 response in the absence of peptide (ROS cells; FIG. 19, sub-maximal OP-1 (1.33 nM))	binding of 125I-labeled OP-1 to ROS cell receptor (ROS cell receptor)	binding of 125I-labeled OP-1 to DAF-4 ECD (DAF-4 ECD)
F2-3: SEQ ID No. 19; 16 residues, finger 2 tip 11-residue loop with 5-residue C-terminal extension (CYFDDSSNVICKKYRS; listed as Homo sapiens)	weak OP-1 agonists	no significant effect	agonistic manner; also recorded: potentiating the cell responsiveness to OP-1	0.01 to 1	highly active	53	54	48	about 20%	increase the basal alkaline phosphatase level			
B1											approximately 60 % of maximum	specifically binds	OP-1 binding to two closely migrated receptor components
